This is an account of results in patent publication US5780434A, “Composition for oral administration of peptides” (Ferring B.V., priority 1993, dated 1998).

Series [1] in a line: Degradation of peptide in human gastro-intestinal juice (HPLC). To be noted: intestinal juice from the ileum, pH 6.5, increasing amounts of aprotinin.
Method: (§1) Human gastro-intestinal juice was obtained from healthy male volunteers who had been fasting for 8 h. A tube was introduced intranasally after local anaesthesia with xylocaine, and gastric juice was collected. Thereafter one standardized meal was given 1 h before sampling of duodenal and distal jejunum juice and another the next morning before the collection of distal ileal juice. After centrifugation the gastric and intestinal juices were frozen in aliquots of 1 ml and stored at -20° C.
(§2) The peptide or peptide analog (10 μl of 10 mM peptide in 0.9% aqueous NaCl) was added to 190 μl of undiluted juice at 37° C. Aliquots of 25 μl were withdrawn at intervals and mixed with 100 μl acetone to stop the reaction. After centrifugation for 10 min at 10,000 g, 10 μl of the supernatant was analyzed by reversed phase HPLC. The effects of increasing amounts of aprotinin were examined under the above conditions in intestinal juice from the ileum.
(§3) Analysis was carried out in a Varian 5000 HPLC analyzer equipped with a UV-detector (220 nm). Column Bondapak TM C18 (3.9×300 mm), eluant MeOH/0.025M NH4 Ac (isocratic conditions), flow rate 1 ml/min.
For series [2] the following is noted: pH 6.5.
Method: as §1, §2, §3
For series [3] the following is noted: human, in vivo. As for the experimental part: Experiments with healthy volunteers. After having fasted for 8 hours six healthy male volunteers were intubated (cf. example 1) with quadruple lumen flexible PVC tubes. The open end of the tube was positioned in the duodenum close to the pylorus; correct positioning was verified fluoroscopically. DDAVP acetate (0.4 mg in 2 ml 0.9% aqueous sodium chloride) was applied at the start and the tube was rinsed with 2 ml 0.9% aqueous sodium chloride. Perfusion with aprotinin (ANTAGOSAN™, Hoechst, Germany; aqueous solution, 10,000 kallikrein inactivator units/ml) started immediately after application of DDAVP and continued for 4 h at a rate of 5 ml/min. A standard breakfast was given 5-10 min after application of DDAVP, and a standardized meal 4 h later. From 2 h after start onwards the volunteers were given 100 ml/h water orally. Each volunteer participated in three sessions.
Bioavailability was determined for each subject in a separate session by intravenous bolus injection of DDAVP (4 μg); blood samples were drawn before and up to 8 h after drug application and analyzed for DDAVP as described above.

For series [4] the following is noted: in the presence of aprotinin, rat; cited from earlier work.

Consider aprotinin, for which the “Inhibition of DDAVP degradation by aprotinin” value in series [1] is given as “concentration-dependent inhibition”.
For the compound `NC(=O)CC[C@@H]1NC(=O)[C@H](Cc2ccccc2)NC(=O)[C@H](Cc2ccc(O)cc2)NC(=O)CCSSC[C@@H](C(=O)N2CCC[C@H]2C(=O)N[C@H](CCCN=C(N)N)C(=O)NCC(N)=O)NC(=O)[C@H](CC(N)=O)NC1=O` [DDAVP, desmopressin], the “DDAVP degraded to (after 35 min)” value in series [2] is given as “about 50%”. The “Increase of DDAVP absorption in presence of aprotinin” value in series [3] was “about five-fold”. Also, the “DDAVP absorption (bioavailability)” value in series [3] (male, 0.4 mg) is given as “about 0.1 % by weight”.
Take “(1-deamino-4-valine)-8-D-arginine-vasopressin”: the “Urine retention after gastric administration of an aqueous solution” value in series [4] is listed as “moderately enhanced”.
